Source: the supplement of paper PMC10307832

Columns and labels:
Experiment in all cases: relative viability (nuclei count vs DMSO), 5 days (fraction); higher = more cells survive
[1] = compound: CCC1=CN=CN=C1N2CCN(CC2)CC3=NC4=C(N3)C=C(C=C4)C(F)(F)F + CS(=O)(=O)CCNCc1ccc(-c2ccc3ncnc(Nc4ccc(OCc5cccc(F)c5)c(Cl)c4)c3c2)o1 [Lapatinib] (partner 2 µM)
Method in brief: (§1)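 Lung cancer cell lines, seeded in 1536-well plates, were treated the following day by pin tool with a single drug or with five library-drug doses (not always all listed) in √10 steps on top of a fixed anchor-drug dose. Cells were fixed and nuclei stained in one step after 5 days, and nuclei were counted. Relative viability is the nuclei count for treated wells divided by that for vehicle wells, reported as medians of duplicate plates.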

[2] = compound: CCC1=CN=CN=C1N2CCN(CC2)CC3=NC4=C(N3)C=C(C=C4)C(F)(F)F + CS(=O)(=O)N1CCN(Cc2cc3nc(-c4cccc5[nH]ncc45)nc(N4CCOCC4)c3s2)CC1 [Pictilisib] (partner 1 µM)
Method in brief: as §1

Mirin + Pictilisib = compound: N=C1NC(=O)/C(=C/c2ccc(O)cc2)S1 [Mirin] + CS(=O)(=O)N1CCN(Cc2cc3nc(-c4cccc5[nH]ncc45)nc(N4CCOCC4)c3s2)CC1 [Pictilisib] (partner 1 µM)
Method in brief: as §1

Mirin + Decitabine = compound: N=C1NC(=O)/C(=C/c2ccc(O)cc2)S1 [Mirin] + Nc1ncn([C@H]2C[C@H](O)[C@@H](CO)O2)c(=O)n1 [Decitabine] (partner 2 µM)
Method in brief: as §1

Cell Line | relative viability ([1]; first compound 0.04 µM) | relative viability ([1]; first compound 0.1265 µM) | relative viability ([1]; first compound 0.4 µM) | relative viability ([1]; first compound 1.265 µM) | relative viability ([1]; first compound 4 µM) | relative viability ([2]; first compound 0.04 µM) | relative viability ([2]; first compound 0.1265 µM) | relative viability ([2]; first compound 0.4 µM) | relative viability ([2]; first compound 1.265 µM) | relative viability ([2]; first compound 4 µM) | relative viability (Mirin + Pictilisib; first compound 0.25 µM) | relative viability (Mirin + Pictilisib; first compound 0.7906 µM) | relative viability (Mirin + Pictilisib; first compound 2.5 µM) | relative viability (Mirin + Pictilisib; first compound 7.906 µM) | relative viability (Mirin + Pictilisib; first compound 25 µM) | relative viability (Mirin + Decitabine; first compound 0.25 µM) | relative viability (Mirin + Decitabine; first compound 0.7906 µM) | relative viability (Mirin + Decitabine; first compound 2.5 µM) | relative viability (Mirin + Decitabine; first compound 7.906 µM) | relative viability (Mirin + Decitabine; first compound 25 µM)
NCI-H3122 | 1.11 | 0.992 | 1 | 1.03 | 0.961 | 0.69 | 0.578 | 0.609 | 0.665 | 0.659 | 0.541 | 0.515 | 0.576 | 0.673 | 0.7 | 0.41 | 0.431 | 0.432 | 0.372 | 0.353
PC-3 [JPC-3] | 0.473 | 0.425 | 0.374 | 0.441 | 0.523 | 0.704 | 0.657 | 0.604 | 0.739 | 0.697 | 0.678 | 0.73 | 0.731 | 0.702 | 0.706 | 0.818 | 0.825 | 0.825 | 0.76 | 0.836
PC-14 | 0.34 | 0.264 | 0.304 | 0.246 | 0.329 | 0.845 | 0.621 | 0.671 | 0.573 | 0.6 | 0.658 | 0.568 | 0.68 | 0.797 | 0.933 | 0.2 | 0.24 | 0.232 | 0.225 | 0.205
RERF-LC-KJ | 0.81 | 0.811 | 0.863 | 0.79 | 0.825 | 0.558 | 0.498 | 0.487 | 0.444 | 0.505 | 0.716 | 0.518 | 0.563 | 0.594 | 0.439 | 0.691 | 0.753 | 0.684 | 0.622 | 0.561
SK-LU-1 | 0.924 | 0.855 | 0.926 | – | 0.902 | 0.573 | 0.494 | 0.469 | – | 0.486 | 0.742 | 0.555 | 0.588 | 0.464 | 0.328 | 0.713 | 0.618 | 0.8 | 0.494 | 0.509
SK-MES-1 | 0.487 | 0.432 | 0.749 | 0.43 | 0.428 | 0.431 | 0.354 | 0.346 | 0.282 | 0.38 | 0.319 | 0.376 | 0.379 | 0.502 | 0.46 | 0.347 | 0.446 | 0.372 | 0.292 | 0.329
SW 1573 | 1.12 | 0.949 | 1 | 1 | 1.08 | 0.441 | 0.43 | 0.44 | 0.474 | 0.426 | 0.473 | – | 0.466 | 0.355 | 0.289 | 0.605 | 0.61 | 0.482 | 0.412 | 0.247
